According to publication PMC7156458, “Synthetic biology based construction of biological activity-related library of fungal decalin-containing diterpenoid pyrones” (Nature Communications, 2020):

Target: Aβ42 (Homo sapiens, UniProt P05067)
Assay: Th-T (thioflavin-T) assay of Aβ42 aggregation
Format: biochemical
Conditions: for Th-T fluorescence, mean of three wells: Aβ42 aggregation time course

Aβ42, sequence (P05067 672-713): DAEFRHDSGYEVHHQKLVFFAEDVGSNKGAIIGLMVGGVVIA

Structure (SMILES): C=C1CCC2C(C)(CCC=C(C)C)C(O)CCC2(C)C1Cc1c(OC)oc(CO)c(C(=O)OC)c1=O (centres unmarked) [Compound 13]
- first Th-T assay result (Aβ42 (10 μM) ± DPPs (20 μM), room temperature): clearly delayed nuclei formation of Aβ42
- Th-T fluorescence, mean of three wells (reading M117): 1.0387
- Th-T fluorescence, mean of three wells (reading M118): 1.037
- Th-T fluorescence, mean of three wells (reading M119): 1.04
- Th-T fluorescence, mean of three wells (reading M120): 1.034
- Th-T fluorescence, mean of three wells (reading M121): 1.036
- Th-T fluorescence, mean of three wells (reading M122): 1.039
- Th-T fluorescence, mean of three wells (reading M123): 1.034
- Th-T fluorescence, mean of three wells (reading M124): 1.036
- Th-T fluorescence, mean of three wells (reading M125): 1.037
- Th-T fluorescence, mean of three wells (reading M126): 1.037
- Th-T fluorescence, mean of three wells (reading M127): 1.0394
- Th-T fluorescence, mean of three wells (reading M128): 1.038
- Th-T fluorescence, mean of three wells (reading M129): 1.038
- Th-T fluorescence, mean of three wells (reading M130): 1.033
- nucleation phase of Aβ42 delayed until (Th-T fluorescence of Aβ42 alone began to increase after 4 h): 6 h
- Th-T fluorescence, mean of three wells (Fig. 7a) (column suffix _10, measurement M19): 0.2324
- Th-T fluorescence, mean of three wells (Fig. 7a) (column suffix _10, measurement M20): 0.2323
- Th-T fluorescence, mean of three wells (Fig. 7a) (column suffix _10, measurement M21): 0.2394
- Th-T fluorescence, mean of three wells (Fig. 7a) (column suffix _10, measurement M22): 0.2441
- Th-T fluorescence, mean of three wells (Fig. 7a) (column suffix _10, measurement M23): 0.249
- Th-T fluorescence, mean of three wells (Fig. 7a) (column suffix _10, measurement M24): 0.2631
- Th-T fluorescence, mean of three wells (Fig. 7a) (column suffix _10, measurement M25): 0.2779
- Th-T fluorescence, mean of three wells (Fig. 7a) (column suffix _10, measurement M26): 0.3045
- Th-T fluorescence, mean of three wells (Fig. 7a) (column suffix _10, measurement M27): 0.3354
- Th-T fluorescence, mean of three wells (Fig. 7a) (column suffix _10, measurement M28): 0.3683
- Th-T fluorescence, mean of three wells (Fig. 7a) (column suffix _10, measurement M29): 0.4093
- Th-T fluorescence, mean of three wells (Fig. 7a) (column suffix _10, measurement M30): 0.4628
- Th-T assay signal, mean of three wells (Fig. 7a) (column suffix _10, reading M1): 0.2437
- Th-T assay signal, mean of three wells (Fig. 7a) (column suffix _10, reading M2): 0.2496
- Th-T assay signal, mean of three wells (Fig. 7a) (column suffix _10, reading M3): 0.25
- Th-T assay signal, mean of three wells (Fig. 7a) (column suffix _10, reading M4): 0.2515
- Th-T assay signal, mean of three wells (Fig. 7a) (column suffix _10, reading M5): 0.2448
- Th-T assay signal, mean of three wells (Fig. 7a) (column suffix _10, reading M6): 0.2438
- Th-T assay signal, mean of three wells (Fig. 7a) (column suffix _10, reading M7): 0.2403
- Th-T assay signal, mean of three wells (Fig. 7a) (column suffix _10, reading M8): 0.2367
- Th-T assay signal, mean of three wells (Fig. 7a) (column suffix _10, reading M9): 0.231
- Th-T assay signal, mean of three wells (Fig. 7a) (column suffix _10, reading M10): 0.233
- Th-T assay signal, mean of three wells (Fig. 7a) (column suffix _10, reading M11): 0.2291
- Th-T assay signal, mean of three wells (Fig. 7a) (column suffix _10, reading M12): 0.2292
- Th-T assay signal, mean of three wells (Fig. 7a) (column suffix _10, reading M13): 0.2301
- Th-T assay signal, mean of three wells (Fig. 7a) (column suffix _10, reading M14): 0.2289
- Th-T assay signal, mean of three wells (Fig. 7a) (column suffix _10, reading M15): 0.2274
- Th-T assay signal, mean of three wells (Fig. 7a) (column suffix _10, reading M16): 0.2305
- Th-T assay signal, mean of three wells (Fig. 7a) (column suffix _10, reading M17): 0.2352
- Th-T assay signal, mean of three wells (Fig. 7a) (column suffix _10, reading M18): 0.231
- Fig. 7a Th-T reading, mean of three wells (column suffix _10, reading M85): 1.544
- Fig. 7a Th-T reading, mean of three wells (column suffix _10, reading M86): 1.5365
- Fig. 7a Th-T reading, mean of three wells (column suffix _10, reading M87): 1.543
- Fig. 7a Th-T reading, mean of three wells (column suffix _10, reading M88): 1.544
- Fig. 7a Th-T reading, mean of three wells (column suffix _10, reading M89): 1.563
- Fig. 7a Th-T reading, mean of three wells (column suffix _10, reading M90): 1.554
- Fig. 7a Th-T reading, mean of three wells (column suffix _10, reading M91): 1.5515
- Fig. 7a Th-T reading, mean of three wells (column suffix _10, reading M92): 1.553
- Fig. 7a Th-T reading, mean of three wells (column suffix _10, reading M93): 1.554
- Fig. 7a Th-T reading, mean of three wells (column suffix _10, reading M94): 1.561
- Fig. 7a Th-T reading, mean of three wells (column suffix _10, reading M95): 1.563
- Fig. 7a Th-T reading, mean of three wells (column suffix _10, reading M96): 1.547
- Fig. 7a Th-T reading, mean of three wells (column suffix _10, reading M97): 1.551
- Fig. 7a Th-T reading, mean of three wells (column suffix _10, reading M98): 1.554
- Fig. 7a Th-T reading, mean of three wells (column suffix _10, reading M99): 1.551
- Fig. 7a Th-T reading, mean of three wells (column suffix _10, reading M100): 1.555
- Fig. 7a Th-T reading, mean of three wells (column suffix _10, reading M101): 1.545
- Fig. 7a Th-T reading, mean of three wells (column suffix _10, reading M102): 1.552
- Fig. 7a Th-T reading, mean of three wells (column suffix _10, reading M103): 1.542
- Fig. 7a Th-T reading, mean of three wells (column suffix _10, reading M104): 1.5457
- Fig. 7a Th-T reading, mean of three wells (column suffix _10, reading M105): 1.553
- Fig. 7a Th-T reading, mean of three wells (column suffix _10, reading M106): 1.551
- Th-T fluorescence, mean of three wells (Fig. 7a) (column suffix _20, measurement M19): 0.1811
- Th-T fluorescence, mean of three wells (Fig. 7a) (column suffix _20, measurement M20): 0.1836
- Th-T fluorescence, mean of three wells (Fig. 7a) (column suffix _20, measurement M21): 0.1846
- Th-T fluorescence, mean of three wells (Fig. 7a) (column suffix _20, measurement M22): 0.1853
- Th-T fluorescence, mean of three wells (Fig. 7a) (column suffix _20, measurement M23): 0.1827
- Th-T fluorescence, mean of three wells (Fig. 7a) (column suffix _20, measurement M24): 0.1835
- Th-T fluorescence, mean of three wells (Fig. 7a) (column suffix _20, measurement M25): 0.1855
- Th-T fluorescence, mean of three wells (Fig. 7a) (column suffix _20, measurement M26): 0.1899
- Th-T fluorescence, mean of three wells (Fig. 7a) (column suffix _20, measurement M27): 0.1923
- Th-T fluorescence, mean of three wells (Fig. 7a) (column suffix _20, measurement M28): 0.1912
- Th-T fluorescence, mean of three wells (Fig. 7a) (column suffix _20, measurement M29): 0.1931
- Th-T assay signal, mean of three wells (Fig. 7a) (column suffix _20, reading M1): 0.2486
- Th-T assay signal, mean of three wells (Fig. 7a) (column suffix _20, reading M2): 0.2414
- Th-T assay signal, mean of three wells (Fig. 7a) (column suffix _20, reading M3): 0.2279
- Th-T assay signal, mean of three wells (Fig. 7a) (column suffix _20, reading M4): 0.2173
- Th-T assay signal, mean of three wells (Fig. 7a) (column suffix _20, reading M5): 0.206
- Th-T assay signal, mean of three wells (Fig. 7a) (column suffix _20, reading M6): 0.2044
- Th-T assay signal, mean of three wells (Fig. 7a) (column suffix _20, reading M7): 0.2009
- Th-T assay signal, mean of three wells (Fig. 7a) (column suffix _20, reading M8): 0.1963
- Th-T assay signal, mean of three wells (Fig. 7a) (column suffix _20, reading M9): 0.1897
- Th-T assay signal, mean of three wells (Fig. 7a) (column suffix _20, reading M10): 0.1909
- Th-T assay signal, mean of three wells (Fig. 7a) (column suffix _20, reading M11): 0.1894
- Th-T assay signal, mean of three wells (Fig. 7a) (column suffix _20, reading M12): 0.1902
- Th-T assay signal, mean of three wells (Fig. 7a) (column suffix _20, reading M13): 0.1854
- Th-T assay signal, mean of three wells (Fig. 7a) (column suffix _20, reading M14): 0.184
- Th-T assay signal, mean of three wells (Fig. 7a) (column suffix _20, reading M15): 0.1861
- Th-T assay signal, mean of three wells (Fig. 7a) (column suffix _20, reading M16): 0.1835
- Th-T assay signal, mean of three wells (Fig. 7a) (column suffix _20, reading M17): 0.1852
- Th-T assay signal, mean of three wells (Fig. 7a) (column suffix _20, reading M18): 0.1827
- Fig. 7a Th-T reading, mean of three wells (column suffix _20, reading M85): 1.042
- Fig. 7a Th-T reading, mean of three wells (column suffix _20, reading M86): 1.037
- Fig. 7a Th-T reading, mean of three wells (column suffix _20, reading M87): 1.045
- Fig. 7a Th-T reading, mean of three wells (column suffix _20, reading M88): 1.0511
- Fig. 7a Th-T reading, mean of three wells (column suffix _20, reading M89): 1.059
- Fig. 7a Th-T reading, mean of three wells (column suffix _20, reading M90): 1.054
- Fig. 7a Th-T reading, mean of three wells (column suffix _20, reading M91): 1.0453
- Fig. 7a Th-T reading, mean of three wells (column suffix _20, reading M92): 1.043
- Fig. 7a Th-T reading, mean of three wells (column suffix _20, reading M93): 1.047
- Fig. 7a Th-T reading, mean of three wells (column suffix _20, reading M94): 1.054
- Fig. 7a Th-T reading, mean of three wells (column suffix _20, reading M95): 1.054
- Fig. 7a Th-T reading, mean of three wells (column suffix _20, reading M96): 1.04
- Fig. 7a Th-T reading, mean of three wells (column suffix _20, reading M97): 1.041
- Fig. 7a Th-T reading, mean of three wells (column suffix _20, reading M98): 1.046
- Fig. 7a Th-T reading, mean of three wells (column suffix _20, reading M99): 1.051
- Fig. 7a Th-T reading, mean of three wells (column suffix _20, reading M100): 1.05
